This note sets out measurements from patent US9708314B2, “Heterocyclic amide compound” (NISSAN CHEMICAL INDUSTRIES, LTD., priority 2013, dated 2017).

Common to all, as to assay type: in vivo
Data set [1] has as its system transplanted Oryza sativa. Kind of data set: Test Example 1: effect on crop, application before weed generation in submerged conditions. Particulars: Application herbicide amount 320 g/ha; Seventeenth Table. Put shortly: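 Rating, on a six-step scale from almost no effect (0) to almost completely withered (5), was made three weeks after pre-emergence treatment. Treatment was surface application to flooded pots at g/ha rates, with plants kept at 25° C. to 30° C.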

Data set [2] relates to directly sowed Oryza sativa. As to the kind of experiment: Test Example 4: effect on crop by application to foliage (diluvial soil, plastic box). Particulars: for b: effect on crop, directly sowed Oryza sativa: application to foliage, application herbicide amount 320 g/ha. The method, boiled down:
(§1)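 Emulsion-formulated compound, diluted to a predetermined g/ha dose, applied by small sprayer to leaves and stems of 14-day-old seedlings grown in sterilized diluvial soil. Effect rated on 0–5 herbicidal-ratio scale three weeks on.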

The subject of data set [3] is Triticum aestivum. The description is as above. The settings on record: for e: effect on crop, Triticum aestivum: application to foliage, application herbicide amount 320 g/ha; for e (Triticum aestivum) effect on crop grade: foliage application. The method, boiled down: as §1
Data set [4] has as its system Brassica campestris L. The data set is described as above. The settings on record: for g: effect on crop, Brassica campestris L.: application to foliage, application herbicide amount 320 g/ha; for g (Brassica campestris L.) effect on crop grade: foliage application. Put shortly: as §1
The subject of data set [5] is Zea mays. Described as above. Particulars: for c: effect on crop, Zea mays: application to foliage, application herbicide amount 320 g/ha. The method, boiled down: as §1
The subject of data set [6] is Beta vulgaris ssp. vulgaris. Described as above. Particulars: for f: effect on crop, Beta vulgaris ssp. vulgaris: application to foliage, application herbicide amount 320 g/ha; for f (Beta vulgaris ssp. vulgaris) effect on crop grade: foliage application. Put shortly:
as §1

For data set [7], the system named is Echinochloa oryzacola Vasing. As to the kind of experiment: Test Example 2: herbicidal activity, application during weed generation in submerged conditions. The settings on record: Eighteenth Table; application herbicide amount 320 g/ha. The method, boiled down:
(§2)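 Post-emergence application under submerged conditions: water-diluted emulsion dosed onto the water surface (g/ha) when weeds reach one- to two-leaf stage. Soil flooded to 4 cm; greenhouse 25–30 °C. Herbicidal ratio graded in six classes, 0 (≤5%) to 5 (≥90%), at three weeks.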

In data set [8] the test system is Scirpus juncoides. Described as above. Particulars: Eighteenth Table; application herbicide amount 320 g/ha. Put shortly: as §2
In data set [9] the test system is Monochoria vaginalis. The description is as above. Particulars: Eighteenth Table; application herbicide amount 320 g/ha. Put shortly:
as §2

The mark [10] stands for this setting: Application herbicide amount 320 g/ha, foliage application.
Setting [11] is: Application herbicide amount 320 g/ha.
Where [12] appears, read: Application herbicide amount 320 g/ha, effect on crop.

For `Cn1nnnc1NC(=O)c1ccc(C(F)(F)F)n2c(C3CCOC3)nnc12` (stereo not drawn) [2-022], in data set [1], the “a: transplanted Oryza sativa (effect on crop grade)” value (from here on “a: transplanted Oryza sativa”) was 5 (Herbicidal ratio of 90% or more (almost completely withered)). For the same molecule, the “b: effect on crop, directly sowed Oryza sativa” value (shortened to “b: effect on crop”) in data set [2] was 5 (Herbicidal ratio of 90% or more (almost completely withered)). For the same molecule, the “e: effect on crop, Triticum aestivum” value in [3] is 3 (Herbicidal ratio of 40% or more and less than 70%). In addition, the “g: effect on crop, Brassica campestris L.” value (“g: effect on crop” for short) in [4] is 5 (Herbicidal ratio of 90% or more (almost completely withered)). The “c: effect on crop, Zea mays” value in data set [5] is 1 (Herbicidal ratio of 5% or more and less than 20%). Besides, the “f: effect on crop, Beta vulgaris ssp. vulgaris” value (from here on “f: effect on crop”) in [6] was 5 (Herbicidal ratio of 90% or more (almost completely withered)). Besides, in data set [7], the “A (Echinochloa oryzicola Vasing.) herbicidal ratio grade” value was 5 (Herbicidal ratio of 90% or more (almost completely withered)). Further, the “B (Scirpus juncoides) herbicidal ratio grade” value in data set [8] is listed as 5 (Herbicidal ratio of 90% or more (almost completely withered)). In [9], the “C (Monochoria vaginalis) herbicidal ratio grade” value was 4 (Herbicidal ratio of 70% or more and less than 90%).
For `Cn1nnnc1NC(=O)c1ccc(C(F)(F)F)n2c(C3CCCC3)nnc12` [2-021], in [1], the “a: transplanted Oryza sativa” value is 4 (Herbicidal ratio of 70% or more and less than 90%). In addition, the “b: effect on crop” value in [2] is 4 (Herbicidal ratio of 70% or more and less than 90%). The “e: effect on crop, Triticum aestivum” value in [3] was 3 (Herbicidal ratio of 40% or more and less than 70%). Besides, in [4], the “g: effect on crop” value was 4 (Herbicidal ratio of 70% or more and less than 90%). Further, the “c: effect on crop, Zea mays” value in data set [5] is reported as 0 (Herbicidal ratio of 5% or less (almost no effect)). In addition, the “f: effect on crop” value in [6] was 5 (Herbicidal ratio of 90% or more (almost completely withered)). Besides, in [7], the “A (Echinochloa oryzicola Vasing.) herbicidal ratio grade” value is 5 (Herbicidal ratio of 90% or more (almost completely withered)). For the same molecule, in [8], the “B (Scirpus juncoides) herbicidal ratio grade” value was 4 (Herbicidal ratio of 70% or more and less than 90%). Besides, in [9], the “C (Monochoria vaginalis) herbicidal ratio grade” value is 4 (Herbicidal ratio of 70% or more and less than 90%).
Regarding `COCCNc1nnc2c(C(=O)Nc3nnc(C)o3)ccc(C(F)(F)F)n12` [1-109], the “a: transplanted Oryza sativa” value in data set [1] is listed as 0 (Herbicidal ratio of 5% or less (almost no effect)). Also, the “b (directly sowed Oryza sativa) effect on crop grade” value in data set [2] (setting [10]) is reported as 0 (Herbicidal ratio of 5% or less (almost no effect)). Besides, the “e (Triticum aestivum) effect on crop grade” value (“e (Triticum aestivum) effect” below) in [3] (setting [11]) is 0 (Herbicidal ratio of 5% or less (almost no effect)). Besides, the “g (Brassica campestris L.) effect on crop grade” value in [4] (setting [11]) is 4 (Herbicidal ratio of 70% or more and less than 90%). In addition, in data set [5] (setting [10]), the “c (Zea mays) effect on crop grade” value is 1 (Herbicidal ratio of 5% or more and less than 20%). In [6] (setting [11]), the “f (Beta vulgaris ssp. vulgaris) effect on crop grade” value is 4 (Herbicidal ratio of 70% or more and less than 90%). The “A (Echinochloa oryzicola Vasing.) herbicidal ratio grade” value in data set [7] is 0 (Herbicidal ratio of 5% or less (almost no effect)). In addition, the “B (Scirpus juncoides) herbicidal ratio grade” value in data set [8] is 1 (Herbicidal ratio of 5% or more and less than 20%). Moreover, the “C (Monochoria vaginalis) herbicidal ratio grade” value in data set [9] is on record as 0 (Herbicidal ratio of 5% or less (almost no effect)).
Turning to `Cn1nnnc1NC(=O)c1ccc(C(F)(F)F)n2c(C3=NOC(C)(C)C3)nnc12` [2-028], the “a: transplanted Oryza sativa” value in data set [1] is recorded as 5 (Herbicidal ratio of 90% or more (almost completely withered)). Moreover, the “d (directly sowed Oryza sativa) effect on crop grade” value in [2] (foliage application, 320 g/ha) is 4 (Herbicidal ratio of 70% or more and less than 90%). In data set [3] (320 g/ha), the “e (Triticum aestivum) effect” value was 4 (Herbicidal ratio of 70% or more and less than 90%). In addition, in [4] (320 g/ha), the “g (Brassica campestris L.) effect on crop grade” value is given as 5 (Herbicidal ratio of 90% or more (almost completely withered)). Moreover, the “b (Zea mays) effect on crop grade” value in data set [5] (foliage application, 320 g/ha) is on record as 5 (Herbicidal ratio of 90% or more (almost completely withered)). In addition, the “f (Beta vulgaris ssp. vulgaris) effect on crop grade” value in data set [6] (320 g/ha) was 5 (Herbicidal ratio of 90% or more (almost completely withered)). Besides, in data set [7], the “A (Echinochloa oryzicola Vasing.) herbicidal ratio grade” value is on record as 5 (Herbicidal ratio of 90% or more (almost completely withered)). Also, in [8], the “B (Scirpus juncoides) herbicidal ratio grade” value is 4 (Herbicidal ratio of 70% or more and less than 90%). The “C (Monochoria vaginalis) herbicidal ratio grade” value in [9] was 4 (Herbicidal ratio of 70% or more and less than 90%).
Take `Cc1nnc(NC(=O)c2ccc(C(F)(F)F)n3c(N4CC[S+]([O-])CC4)nnc23)o1` [1-119]: the “a: transplanted Oryza sativa” value in data set [1] is 3 (Herbicidal ratio of 40% or more and less than 70%). Further, the “b (directly sowed Oryza sativa) effect on crop grade” value in [2] (setting [10]) was 3 (Herbicidal ratio of 40% or more and less than 70%). In data set [3] (setting [11]), the “e (Triticum aestivum) effect” value was 3 (Herbicidal ratio of 40% or more and less than 70%). Further, the “g (Brassica campestris L.) effect on crop grade” value in [4] (setting [11]) was 5 (Herbicidal ratio of 90% or more (almost completely withered)). Moreover, in [5] (setting [10]), the “c (Zea mays) effect on crop grade” value was 2 (Herbicidal ratio of 20% or more and less than 40%). Besides, in data set [6] (setting [11]), the “f (Beta vulgaris ssp. vulgaris) effect on crop grade” value is 5 (Herbicidal ratio of 90% or more (almost completely withered)). In [7], the “A (Echinochloa oryzicola Vasing.) herbicidal ratio grade” value is 4 (Herbicidal ratio of 70% or more and less than 90%). In addition, the “B (Scirpus juncoides) herbicidal ratio grade” value in [8] was 1 (Herbicidal ratio of 5% or more and less than 20%). In [9], the “C (Monochoria vaginalis) herbicidal ratio grade” value is given as 0 (Herbicidal ratio of 5% or less (almost no effect)).
`Cn1nnnc1NC(=O)c1ccc(C(F)(F)F)n2c(C(C)(C)C)nnc12` [2-027]: the “a: transplanted Oryza sativa” value in data set [1] was 4 (Herbicidal ratio of 70% or more and less than 90%). Also, the “b: effect on crop” value in [2] was 4 (Herbicidal ratio of 70% or more and less than 90%). Besides, the “e: effect on crop, Triticum aestivum” value in data set [3] is 3 (Herbicidal ratio of 40% or more and less than 70%). Also, the “g: effect on crop” value in [4] was 4 (Herbicidal ratio of 70% or more and less than 90%). The “c: effect on crop, Zea mays” value in data set [5] is 0 (Herbicidal ratio of 5% or less (almost no effect)). The “f: effect on crop” value in data set [6] is reported as 5 (Herbicidal ratio of 90% or more (almost completely withered)). Besides, in data set [7], the “A (Echinochloa oryzicola Vasing.) herbicidal ratio grade” value is reported as 5 (Herbicidal ratio of 90% or more (almost completely withered)). Also, the “B (Scirpus juncoides) herbicidal ratio grade” value in data set [8] is 4 (Herbicidal ratio of 70% or more and less than 90%). Also, in data set [9], the “C (Monochoria vaginalis) herbicidal ratio grade” value was 4 (Herbicidal ratio of 70% or more and less than 90%).
Consider `COCCOC(=O)Cc1nnc2c(C(=O)Nc3nnc(C)o3)ccc(C(F)(F)F)n12` [1-060], for which the “a: transplanted Oryza sativa” value in data set [1] is 2 (Herbicidal ratio of 20% or more and less than 40%). Further, the d in data set [2] (setting [12]) is 4 (Herbicidal ratio of 70% or more and less than 90%). In data set [3] (setting [12]), the e was 3 (Herbicidal ratio of 40% or more and less than 70%). Besides, the g in data set [4] (setting [12]) was 4 (Herbicidal ratio of 70% or more and less than 90%). Moreover, in data set [5] (setting [12]), the b is 3 (Herbicidal ratio of 40% or more and less than 70%). In addition, the f in data set [6] (setting [12]) was 5 (Herbicidal ratio of 90% or more (almost completely withered)). For the same molecule, in data set [7], the “A (Echinochloa oryzicola Vasing.) herbicidal ratio grade” value was 2 (Herbicidal ratio of 20% or more and less than 40%). In [8], the “B (Scirpus juncoides) herbicidal ratio grade” value is 3 (Herbicidal ratio of 40% or more and less than 70%). In addition, the “C (Monochoria vaginalis) herbicidal ratio grade” value in data set [9] was 2 (Herbicidal ratio of 20% or more and less than 40%).
